Five compounds from US20250002532A1, “A NOVEL PEPTIDE AND THE USE THEREOF” (Rudacure Corporation, priority 2023, published 2025) can be followed below.

Entries after “also recorded” stand apart in the source; their conditions may differ. Residues, ends and D or L forms follow the SMILES beside them. No end group written: not given here.

The target of assay [1] is T1, hTRPV1 (Homo sapiens, UniProt Q8NER1).
T1 construct: expressed in transfected cells; the earlier reading calls it TRPV1 CHO-K1 cells
As to the kind of experiment: Calcium imaging (Fura-2AM) of capsaicin-induced Ca2+ influx in TRPV1 CHO-K1 cells. It is filed as cell-based. The following applies: for inhibition at 0.001 µM: peptide at 1 nM; for inhibition at 0.005 µM: peptide at 5 nM; for inhibition at 0.1 µM: peptide at 100 nM; for influx of calcium into TRPV1 channel (ΔF/F): FIG. 1, peptide injected; for TRPV1 inhibitory activity / inhibition rate (screening): screening of peptides. The method, then:
The TRPV1 inhibitory effect of various short-length peptides, including the 49 peptides in Tables 5 and 6, was evaluated by the following method.
All reagents used in cell culture were sterilized products. The culture medium of the cell line is shown in Table 7 below, and the culture was performed in a cell incubator with under the culture conditions of […] and 37° C. In addition, when cryopreserved cells (stock) were thawed and used, they were subcultured two to three times before use in the test.
After removing the cell culture medium by suction, 10 ml DPBS was added to wash the cells, and then the DPBS was removed by suction. 2 ml 0.05% trypsin-EDTA was added, and then the cells were cultured in a cell incubator at 37° C. for three to five minutes. Through a microscope, detachment of the cells from the bottom surface of the culture dish was confirmed, and 8 ml of the cell culture medium including 10% FBS was added to inactivate the trypsin-EDTA. Cells in the culture dish were collected, pipetted, and transferred to a 15 ml tube.
Centrifugation was performed at 800 rpm for five minutes, and all the supernatant except the cell pellet was removed. Then, the cell culture medium was added, and the pellet was carefully loosened.
After measuring the number of cells with a hemocytometer, the cells were dispensed at 1×10^3 cells/10 μl/coverslip at the center of a 12 mm cover slip coated with poly-D-lysine.
A 35π petri dish containing the cover slip was stored in a cell incubator, and when the cells were attached to the cover slip after one to two hours, 2 ml of the cell culture medium was added and stored in the cell incubator again.
The sample was added to 200 ml distilled water (DW) and mixed according to the composition in Table 8 below.
The pH was adjusted to a range of 7.3 to 7.4 using 5 N NaOH, and then distilled water (DW) was added to adjust the final volume to 250 ml.
Capsaicin was dissolved in 100% ethanol to prepare a 10 mM stock. Capsaicin, a TRPV1 activating substance, was diluted in the extracellular solution to a concentration of 0.1-1 mM before using in the experiment.
The test material (peptide according to the present invention) was dissolved in a solvent and then diluted to an appropriate concentration in the extracellular solution before using in the experiment.
2 mM Fura-2AM was prepared by adding 24.95 ml of DMSO to 50 mg of Fura 2AM powder, which is used as a membrane-permeable fluorescent marker. After the experiment, the remaining Fura-2AM was stored at −20° C. for reuse and covered with silver foil to prevent exposure to light.
2 mM Fura-2AM was diluted 1/1000 in a cell culture medium without FBS and antibiotics to prepare 1 ml Fura-2AM (based on a 35π Petri dish) to a final concentration of […]. After removing the cell culture medium in the 35π Petri dish, the cells were washed once with 2 ml DPBS. 1 ml of the Fura-2AM solution prepared above was transferred to a 35π Petri dish, and the cells were cultured in a cell incubator for 40 min.
To operate calcium imaging equipment, an IRIS-9 camera was turned on and then a computer was powered on. To operate a perfusion system, a suction device was powered on, 20 to 30 ml of distilled water was added to each perfusion syringe, and suction was performed while allowing the distilled water to flow into the chamber (syringe wash).
The extracellular solution and test materials prepared in advance were placed in the syringes washed with distilled water, and smooth flow of the solutions from each syringe into the chamber was confirmed. At this time, clips were used to block all the lines except one syringe line to be checked. In other words, the flow of the solution through only a single syringe line without the clip was checked (When the solution flows through two or more lines, the solutions could have been mixed.).

Assay [2] concerns pain caused by capsaicin. Kind of assay: Capsaicin test (pain behavioral response). The format is in vivo, C57BL/6N mouse. Particulars: 0.5 mg/kg I.P. one hour before 0.01% capsaicin; 0 to 5 minutes; FIG. 5. The protocol:
An in vivo test was performed with the peptides of SEQ ID NOS: 5, 6, 9, and 11.
• a. […] Preparation of positive control material: BCTC was homogeneously dissolved in a saline solution at a concentration of 3 mg/mL. • e.
• a. Preparation of test materials: The peptides of SEQ ID NOS: 5, 6, 9, and 11 were dissolved in a saline solution to prepare at a concentration of 0.05 mg/mL. • b.
• a. Saline solution, BCTC, and peptides of SEQ ID NOS: 5, 6, 9, and 11, the administered materials corresponding to each group, were administered in advance about one hour before capsaicin administration. • b. One hour after the test material administration to each group, 20 μL of 0.01% capsaicin was injected subcutaneously into the sole of the right foot. • c. After administering […] to each subject, the time at which pain behavioral responses (licking, biting, etc.) appeared was measured in the interval of 0 to 5 minutes. • d. Grooming in regions other than the region where capsaicin was administered was not counted. • e.
In a previous study, the pain inhibiting effect was confirmed through a formalin test. To confirm whether such pain inhibiting phenomenon is through TRPV1, the pain response pattern was investigated after subcutaneous injection of capsaicin, which is one of the TRPV1 activators.

Assay [3] concerns CCI pain model. As to the kind of experiment: CCI pain model, Von Frey test. Particulars: amount printed 1 mg/ml (0.1 mg/mL, 200 μL I.P.); two hours after administration; FIG. 6.
The subject of assay [4] is pain caused by formalin. As to the kind of experiment: Formalin test (pain behavioral response). The format is in vivo, ICR mouse. The following applies: 2nd phase (20 to 40 minutes), vs saline group, FIG. 4. The protocol:
An in vivo test was performed with the peptides of SEQ ID NOS: 11 and 12.
• a. […] Preparation of positive control material: Pregabalin was homogeneously dissolved in a saline solution at a concentration of 3 mg/mL. • e.
• a. Saline solution, pregabalin, peptide of SEQ ID NO: 11, and peptide of SEQ ID NO: 12, the administered materials corresponding to each group, were administered in advance about one hour before formalin administration. • b. One hour after the test material administration to each group, 20 μL of 2% formalin was injected subcutaneously into the sole of the right foot. • c. After administering […] to each subject, the time at which pain behavioral responses (licking, biting, etc.) appeared was measured in the intervals of 0 to 5 minutes and 20 to 40 minutes. • d. Grooming in regions other than the region where formalin was administered was not counted. • e.
The formalin test is a method of evaluating the degree of pain by subcutaneously injecting formalin into the dorsum of the hind paw of a mouse and then observing the behavior that appears thereafter. The degree of pain is evaluated by the number of times or duration of flinching responses. […]

In assay [5] the test system is CIPN pain model. As to the kind of experiment: CIPN (paclitaxel) pain model, Von Frey test. The format is in vivo, SD rat. The following applies: one, three and seven hours after administration, FIG. 8. The method, then:
• a. […] Preparation of positive control material: Prebabalin was homogeneously dissolved in a saline solution at a concentration of 30 mg/10 mL and used. • e.
• a. […] Chemotherapy induced peripheral neuropathy (CIPN) pain modeling
Paclitaxel was dissolved at 2 mg/10 ml in a solution prepared by mixing cremophor EL and absolute ethanol at a 1:1 ratio, and the resulting solution was administered intraperitoneally in the amount of 2 ml each. Chemotherapy-induced pain was induced by administering paclitaxel once a day at 24-hour intervals for 4 days. • c. Confirmation of pain induction
Drug administration and confirmation of analgesic efficacy
Statistical analysis processing

For assay [6], the system named is SNL pain model. Kind of assay: SNL pain model, Von Frey test. The following applies: 2 mg/kg I.P.; one, three and seven hours after administration; FIG. 7.
[7] abbreviates: CHO-K1, read-out: hTRPV1 activity inhibited compared to the control group.

T1 sequence (Q8NER1 whole entry): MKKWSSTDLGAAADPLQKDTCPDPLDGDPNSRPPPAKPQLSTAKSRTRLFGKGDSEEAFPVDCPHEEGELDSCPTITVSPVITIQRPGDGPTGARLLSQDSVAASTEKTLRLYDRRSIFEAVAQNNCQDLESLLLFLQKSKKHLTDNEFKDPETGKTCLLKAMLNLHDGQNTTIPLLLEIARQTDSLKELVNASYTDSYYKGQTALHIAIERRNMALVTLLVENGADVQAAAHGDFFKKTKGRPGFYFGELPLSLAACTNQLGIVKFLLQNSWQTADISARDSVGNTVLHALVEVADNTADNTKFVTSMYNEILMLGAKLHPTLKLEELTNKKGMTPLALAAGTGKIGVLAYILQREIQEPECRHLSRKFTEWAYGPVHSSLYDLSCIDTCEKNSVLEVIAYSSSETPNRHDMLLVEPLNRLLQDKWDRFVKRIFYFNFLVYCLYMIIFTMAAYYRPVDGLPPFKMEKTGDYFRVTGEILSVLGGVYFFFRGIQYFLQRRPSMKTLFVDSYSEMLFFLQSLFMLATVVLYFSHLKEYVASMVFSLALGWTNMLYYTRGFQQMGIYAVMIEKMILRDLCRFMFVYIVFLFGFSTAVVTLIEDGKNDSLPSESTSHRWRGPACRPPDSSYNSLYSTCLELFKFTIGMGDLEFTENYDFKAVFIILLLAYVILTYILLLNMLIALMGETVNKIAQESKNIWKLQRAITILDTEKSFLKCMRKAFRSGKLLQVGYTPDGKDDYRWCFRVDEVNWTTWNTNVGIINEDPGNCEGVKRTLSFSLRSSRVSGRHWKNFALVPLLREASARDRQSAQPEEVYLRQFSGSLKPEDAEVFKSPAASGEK

As to `C[C@H](NC(=O)[C@H](CCCCN)NC(=O)[C@@H](N)Cc1ccc(O)cc1)C(=O)N[C@@H](CC(N)=O)C(=O)N[C@@H](Cc1ccc(O)cc1)C(=O)N[C@@H](CS)C(=O)N[C@@H](CO)C(=O)NCC(=O)N[C@@H](CCC(N)=O)C(=O)N[C@@H](CS)C(=O)N[C@@H](Cc1ccc(O)cc1)C(=O)O` [SEQ ID NO: 5, YKANYCSGQCY] (H-YKANYCSGQCY-OH; N-terminus and C-terminus assumed), in assay [1] (setting [7]), the inhibition at 0.001 µM is about 20%, the inhibition at 0.005 µM amounted to 53% and the inhibition at 0.1 µM was determined as 77%. Also, the inhibition at 0.01 µM in assay [1] (CHO-K1, peptide at 10 nM, read-out: hTRPV1 activity inhibited compared to the control group) was determined as 75%. Further, the inhibition at 0.05 µM in assay [1] (CHO-K1, peptide at 50 nM, read-out: hTRPV1 activity inhibited compared to the control group) was found to be 79%. In assay [1] (CHO-K1, peptide at 500 nM, read-out: hTRPV1 activity inhibited compared to the control group), the inhibition at 0.5 µM worked out at 95%. In assay [1], the “influx of calcium into TRPV1 channel (ΔF/F)” value was “the influx of calcium was significantly reduced” and the “TRPV1 inhibitory activity / inhibition rate (screening)” value was “high inhibition rate of TRPV1”. For the same compound, in assay [2], the “pain behavioral response (licking, biting) after capsaicin” value was “significant decrease of the pain behavioral response; also recorded: inhibited the pain caused by the peripheral and central sensitization”.

As for AGQCYMFMQKY [SEQ ID NO: 9], the “TRPV1 inhibitory activity / inhibition rate (screening)” value in assay [1] was “high inhibition rate of TRPV1”. Moreover, the “pain behavioral response (licking, biting) after capsaicin” value in assay [2] is “inhibited the pain caused by the peripheral and central sensitization”.

Take SGQCYMFMQKY [SEQ ID NO: 6, SGQCYMFMQKY]: the inhibition at 0.0005 µM in assay [1] (CHO-K1, peptide at 0.5 nM, read-out: hTRPV1 activity inhibited compared to the control group) is about 9%. For the same compound, in assay [1] (setting [7]), the inhibition at 0.001 µM stood at 16%, the inhibition at 0.005 µM is 51% and the inhibition at 0.1 µM was 70%. Moreover, in assay [1], the “influx of calcium into TRPV1 channel (ΔF/F)” value is “the influx of calcium was significantly reduced” and the “TRPV1 inhibitory activity / inhibition rate (screening)” value is listed as “high inhibition rate of TRPV1”. In assay [2], the “pain behavioral response (licking, biting) after capsaicin” value was “significant decrease of the pain behavioral response; also recorded: inhibited the pain caused by the peripheral and central sensitization”.

Take YGQCYMWMQKW [SEQ ID NO: 11]: the “pain behavioral response threshold (Von Frey), after vs before administration” value in assay [3], in assay [5] (4 mg/kg I.P.) and in assay [6] was “the pain behavioral response threshold increased after the administration compared to before the administration” in each case. Moreover, in assay [1], the “TRPV1 inhibitory activity / inhibition rate (screening)” value is “high inhibition rate of TRPV1”. In assay [4] (8 mg/kg I.P. one hour before 2% formalin), the “pain behavioral response (licking, biting) after formalin” value was “significant decrease of the pain behavioral response in the 2nd phase”. For the same compound, in assay [2], the “pain behavioral response (licking, biting) after capsaicin” value is “significant decrease of the pain behavioral response; also recorded: inhibited the pain caused by the peripheral and central sensitization”.

YGQCYMYMQKW [SEQ ID NO: 12]: the “pain behavioral response threshold (Von Frey), after vs before administration” value in assay [3], in assay [5] (2 mg/kg I.P.) and in assay [6] was “the pain behavioral response threshold increased after the administration compared to before the administration” in each case. Moreover, the “TRPV1 inhibitory activity / inhibition rate (screening)” value in assay [1] was “high inhibition rate of TRPV1”. In addition, the “pain behavioral response (licking, biting) after formalin” value in assay [4] (4 mg/kg I.P. one hour before 2% formalin) is “significant decrease of the pain behavioral response in the 2nd phase”.
